Measurements reported in PubChem BioAssay AID248 (DTP/NCI, 2004).
“And” between values parts separate entries of the source, which are not always exact repeats. Equal values may be shown once. Inconclusive results and toxic doses are left out. No stated cut-off is given here; in the data, active means T/C of 150% or more; inactive means T/C below 125%.

Test system: L1210 leukemia ip in BDF1 mice, survival T/C
Assay: NCI In Vivo Anticancer Drug Screen. Data for tumor model L1210 Leukemia (intraperitoneal) in B6D2F1 (BDF1) mice
Conditions: endpoint: mean survival time, higher = longer survival
Procedure, shortened: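 Transplantable tumor model; survival measured in treated vs vehicle control mice. Value = treated/control.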

[1] = dose: 100.0 mg/kg/injection, schedule: Q04DX003 (ip), vehicle: saline with Tween-80
[2] = dose: 200.0 mg/kg/injection, schedule: Q04DX003 (ip), vehicle: saline with Tween-80
[3] = dose: 50.0 mg/kg/injection, schedule: Q01DX001 (ip), vehicle: saline
[4] = dose: 100.0 mg/kg/injection, schedule: Q01DX001 (ip), vehicle: saline
[5] = dose: 200.0 mg/kg/injection, schedule: Q01DX001 (ip), vehicle: saline
[6] = dose: 400.0 mg/kg/injection, schedule: Q01DX001 (ip), vehicle: saline
[7] = dose: 100.0 mg/kg/injection, schedule: Q04DX002 (ip), vehicle: saline
[8] = dose: 100.0 mg/kg/injection, schedule: Q04DX002 (ip), vehicle: Klucel (hydroxypropylcellulose) (HPC)
[9] = dose: 200.0 mg/kg/injection, schedule: Q04DX002 (ip), vehicle: Klucel (hydroxypropylcellulose) (HPC)
[10] = dose: 400.0 mg/kg/injection, schedule: Q04DX002 (ip), vehicle: Klucel (hydroxypropylcellulose) (HPC)
[11] = dose: 100.0 mg/kg/injection, schedule: Q01DX001 (ip), vehicle: Klucel (hydroxypropylcellulose) (HPC)
[12] = dose: 200.0 mg/kg/injection, schedule: Q01DX001 (ip), vehicle: Klucel (hydroxypropylcellulose) (HPC)
[13] = dose: 100.0 mg/kg/injection, schedule: Q01DX009 (ip), vehicle: Klucel (hydroxypropylcellulose) (HPC)
[14] = dose: 200.0 mg/kg/injection, schedule: Q01DX009 (ip), vehicle: Klucel (hydroxypropylcellulose) (HPC)
[15] = dose: 400.0 mg/kg/injection, schedule: Q01DX009 (ip), vehicle: Klucel (hydroxypropylcellulose) (HPC)
[16] = dose: 50.0 mg/kg/injection, schedule: Q01DX009 (ip), vehicle: Klucel (hydroxypropylcellulose) (HPC)
[17] = dose: 200.0 mg/kg/injection, schedule: Q04DX003 (ip), vehicle: Klucel (hydroxypropylcellulose) (HPC)
[18] = dose: 100.0 mg/kg/injection, schedule: Q01DX001 (ip), vehicle: carboxymethylcellulose (CMC)
[19] = dose: 200.0 mg/kg/injection, schedule: Q01DX001 (ip), vehicle: carboxymethylcellulose (CMC)
[20] = dose: 400.0 mg/kg/injection, schedule: Q01DX001 (ip), vehicle: carboxymethylcellulose (CMC)

Measured: T/C

O=C1OCc2cccc3cccc1c23
inactive: [1] 115 % of control | [2] 104 % of control

CC(C)c1nc2c(c(=O)n(C)c(=O)n2C)n1C
inactive: [3] 102 % of control | [4] 96 % of control | [5] 96 % of control | [6] 108 % of control

COC(=O)C1CCCN1C(=O)C(C)=O (stereo unspecified)
inactive: [7] 102 % of control | dose: 200.0 mg/kg/injection, schedule: Q04DX002 (ip), vehicle: saline 94 % of control | dose: 400.0 mg/kg/injection, schedule: Q04DX002 (ip), vehicle: saline 113 % of control

COC(OC)c1nc(N)[nH]c(=O)c1Cc1cccc2ccccc12
inactive: [8] 97 % of control | [9] 86 % of control | [10] 105 % of control

CCC(COC(=O)c1ccc(N(CC)CC)cc1)NC1CCCCC1 (stereo unspecified)
inactive: dose: 75.0 mg/kg/injection, schedule: Q01DX001 (ip), vehicle: carboxymethylcellulose (CMC) 95 % of control | dose: 150.0 mg/kg/injection, schedule: Q01DX001 (ip), vehicle: carboxymethylcellulose (CMC) 95 % of control | dose: 300.0 mg/kg/injection, schedule: Q01DX001 (ip), vehicle: carboxymethylcellulose (CMC) 94 % of control

CN(CCCN)CCCN
inactive: dose: 25.0 mg/kg/injection, schedule: Q04DX002 (ip), vehicle: saline 115 % of control | dose: 50.0 mg/kg/injection, schedule: Q04DX002 (ip), vehicle: saline 96 % of control | [7] 100 % of control and 104 % of control

O=C1CC2(CCN(Cc3ccccc3)CC2)C(=O)N1Nc1ccccc1
inactive: [11] 105 % of control | [12] 100 % of control | dose: 400.0 mg/kg/injection, schedule: Q01DX001 (ip), vehicle: Klucel (hydroxypropylcellulose) (HPC) 100 % of control

O=C(c1ccccc1)C(O)(c1ccccc1)c1ccccc1
inactive: [8] 89 % of control | [9] 107 % of control | [10] 93 % of control

Cc1cc([N+](=O)[O-])c(NCCOC(=O)c2ccc([N+](=O)[O-])cc2)c([N+](=O)[O-])c1
inactive: [13] 106 % of control | [14] 112 % of control | [15] 98 % of control

COc1ccc2c(c1)c(CC(=O)O)c(C)n2C(=O)c1ccc(Cl)cc1
inactive: [3] 88 % of control | [4] 95 % of control | [5] 95 % of control | [6] 93 % of control

CCCCCCC(=O)CCCCCCCCCCCCC(=O)OC
inactive: dose: 400.0 mg/kg/injection, schedule: Q01DX009 (ip), vehicle: saline with Tween-80 88 % of control

NNC(=O)Cc1ccccc1
inactive: dose: 100.0 mg/kg/injection, schedule: Q04DX003 (ip), vehicle: saline 94 % of control | dose: 200.0 mg/kg/injection, schedule: Q04DX003 (ip), vehicle: saline 89 % of control

CCOc1nc(N)nc2c1-c1ccccc1CC2
inactive: [1] 97 % of control | [2] 97 % of control | dose: 400.0 mg/kg/injection, schedule: Q04DX003 (ip), vehicle: saline with Tween-80 90 % of control

CCCCCCCCN(C)N=Nc1ccc(Cl)cc1C(=O)O
inactive: dose: 150.0 mg/kg/injection, schedule: Q01DX009 (ip), vehicle: Klucel (hydroxypropylcellulose) (HPC) 117 % of control

O=C(Nc1ccccc1Cl)NC1CCCCC1
inactive: [13] 100 % of control | [8] 95 % of control | [14] 97 % of control | [9] 100 % of control | [15] 91 % of control | [10] 95 % of control

O=C(O)c1ccccc1C(=O)Nc1ccc([N+](=O)[O-])cc1Cl
inactive: [16] 94 % of control | [13] 95 % of control | dose: 100.0 mg/kg/injection, schedule: Q04DX003 (ip), vehicle: Klucel (hydroxypropylcellulose) (HPC) 97 % of control | [14] 89 % of control | [17] 97 % of control

Cc1ccc(N2C(=O)C3C(C2=O)C2(Cl)C(Cl)=C(Cl)C3(Cl)C2(Cl)Cl)cc1Cl (stereo unspecified)
inactive: [13] 94 % of control | [14] 87 % of control | [15] 92 % of control

N#Cc1cccc(C(=O)Cl)c1
inactive: dose: 25.0 mg/kg/injection, schedule: Q01DX009 (ip), vehicle: carboxymethylcellulose (CMC) 95 % of control and 96 % of control | dose: 50.0 mg/kg/injection, schedule: Q01DX009 (ip), vehicle: carboxymethylcellulose (CMC) 100 % of control and 89 % of control | [18] 92 % of control | dose: 100.0 mg/kg/injection, schedule: Q01DX009 (ip), vehicle: carboxymethylcellulose (CMC) 92 % of control and 95 % of control and 96 % of control | dose: 100.0 mg/kg/injection, schedule: Q04DX002 (ip), vehicle: carboxymethylcellulose (CMC) 95 % of control and 89 % of control | dose: 100.0 mg/kg/injection, schedule: Q04DX003 (ip), vehicle: carboxymethylcellulose (CMC) 96 % of control and 100 % of control | [19] 92 % of control and 98 % of control | dose: 200.0 mg/kg/injection, schedule: Q04DX002 (ip), vehicle: carboxymethylcellulose (CMC) 95 % of control | dose: 200.0 mg/kg/injection, schedule: Q04DX003 (ip), vehicle: carboxymethylcellulose (CMC) 96 % of control and 100 % of control | dose: 400.0 mg/kg/injection, schedule: Q04DX003 (ip), vehicle: carboxymethylcellulose (CMC) 91 % of control

CCc1cc2c(cc1/C(C)=N/N=C(\C)c1cc3c(cc1CC)C(C)(C)CCC3(C)C)C(C)(C)CCC2(C)C
inactive: [13] 97 % of control | [14] 89 % of control | [15] 93 % of control

CS(=O)(=O)OCC(=O)O
inactive: [11] 93 % of control | [12] 97 % of control

COc1ccc(OC)c(CC(Cl)(C#N)C#N)c1
inactive: dose: 12.0 mg/kg/injection, schedule: Q01DX009 (ip), vehicle: Klucel (hydroxypropylcellulose) (HPC) 100 % of control | dose: 25.0 mg/kg/injection, schedule: Q01DX009 (ip), vehicle: Klucel (hydroxypropylcellulose) (HPC) 102 % of control | [16] 102 % of control | [17] 105 % of control

OC1CCCCC1c1ccccc1 (stereo unspecified)
inactive: dose: 50.0 mg/kg/injection, schedule: Q01DX009 (ip), vehicle: saline with Tween-80 87 % of control | dose: 100.0 mg/kg/injection, schedule: Q01DX009 (ip), vehicle: saline with Tween-80 87 % of control | dose: 200.0 mg/kg/injection, schedule: Q01DX009 (ip), vehicle: saline with Tween-80 97 % of control

O=C(/C(=C\c1ccccc1)Oc1ccc(S[N+](=O)[O-])cc1)c1ccccc1
inactive: [18] 95 % of control | [19] 92 % of control | [20] 95 % of control

O=C(O)C1CCC(C(=O)O)CC1 (stereo unspecified)
inactive: dose: 50.0 mg/kg/injection, schedule: Q01DX001 (ip), vehicle: carboxymethylcellulose (CMC) 101 % of control | [18] 88 % of control | [20] 98 % of control

CC(=O)C[P+](c1ccccc1)(c1ccccc1)c1ccccc1
inactive: dose: 12.0 mg/kg/injection, schedule: Q01DX009 (ip), vehicle: saline 96 % of control | dose: 12.0 mg/kg/injection, schedule: Q04DX003 (ip), vehicle: saline 104 % of control | dose: 25.0 mg/kg/injection, schedule: Q01DX009 (ip), vehicle: saline 96 % of control | dose: 25.0 mg/kg/injection, schedule: Q04DX003 (ip), vehicle: saline 94 % of control | dose: 50.0 mg/kg/injection, schedule: Q01DX009 (ip), vehicle: saline 112 % of control | dose: 50.0 mg/kg/injection, schedule: Q04DX003 (ip), vehicle: saline 98 % of control
